In brackets after ≈: the same amount, converted by molar mass.
What was measured:
Mycobacterium leprae [1] = assay: Anti-leprotic activity against Mycobacterium leprae infected in BALB/c weanling mouse assessed as bacteria killing at 20 mg/kg, ip administrated for 60 days and measured after 1 year by Spearman-Karber technique analysis relative to control; type: functional
Mycobacterium leprae [2] = assay: Anti-leprotic activity against Mycobacterium leprae infected in BALB/c weanling mouse assessed as bacteria killing at 20 mg/kg, ip administrated for 60 days and measured after 1 year by most probable number technique analysis relative to control; type: functional
Mycobacterium leprae [3] = assay: Anti-leprotic activity against Mycobacterium leprae infected in BALB/c weanling mouse assessed as bacteria killing at 100 mg/kg, ip administrated for 60 days and measured after 1 year by Spearman-Karber technique analysis relative to control; type: functional
Mycobacterium leprae [4] = assay: Anti-leprotic activity against Mycobacterium leprae infected in BALB/c weanling mouse assessed as bacteria killing at 100 mg/kg, ip administrated for 60 days and measured after 1 year by most probable number technique analysis relative to control; type: functional
Mycobacterium leprae [5] = assay: Anti-leprotic activity against Mycobacterium leprae subcultures at 4 weeks assessed as ATP level per 10^7 cells at 10.0 mg/L measured by bioluminescence assay (reference value: 462 +/- 64 pg); type: functional
Mycobacterium leprae [6] = assay: Anti-leprotic activity against Mycobacterium leprae subcultures at 4 weeks assessed as ATP level per 10^7 cells at 5.0 mg/L measured by bioluminescence assay (reference value: 462 +/- 64 pg); type: functional
Mycobacterium leprae [7] = assay: Anti-leprotic activity against Mycobacterium leprae subcultures at 4 weeks assessed as ATP level per 10^7 cells at 15.0 mg/L measured by bioluminescence assay (reference value: 462 +/- 64 pg); type: functional
Mycobacterium leprae [8] = assay: Anti-leprotic activity against Mycobacterium leprae primary cultures at 4 weeks assessed as [3H]thymidine uptake per 5 times 10^7 cells at 5.0 mg/L (reference value: 0.95 +/- 0.01 pmol); type: functional
Mycobacterium leprae [9] = assay: Anti-leprotic activity against Mycobacterium leprae primary cultures at 4 weeks assessed as ATP level per 10^7 cells at 10.0 mg/L measured by bioluminescence assay (reference value: 314 +/- 46 pg); type: functional
Mycobacterium leprae [10] = assay: Anti-leprotic activity against Mycobacterium leprae subcultures at 4 weeks assessed as [3H]thymidine uptake per 5 times 10^7 cells at 10.0 mg/L (reference value: 1.28 +/- 0.14 pmol); type: functional
Mycobacterium leprae [11] = assay: Anti-leprotic activity against Mycobacterium leprae primary cultures at 4 weeks assessed as [3H]thymidine uptake per 5 times 10^7 cells at 10.0 mg/L (reference value: 0.95 +/- 0.01 pmol); type: functional
Mycobacterium leprae [12] = assay: Anti-leprotic activity against Mycobacterium leprae primary cultures at 4 weeks assessed as ATP level per 10^7 cells at 15.0 mg/L measured by bioluminescence assay (reference value: 314 +/- 46 pg); type: functional
Mycobacterium leprae [13] = assay: Anti-leprotic activity against Mycobacterium leprae subcultures at 4 weeks assessed as [3H]thymidine uptake per 5 times 10^7 cells at 5.0 mg/L (reference value: 1.28 +/- 0.14 pmol); type: functional
Mycobacterium leprae [14] = assay: Anti-leprotic activity against Mycobacterium leprae primary cultures at 4 weeks assessed as ATP level per 10^7 cells at 5.0 mg/L measured by bioluminescence assay (reference value: 314 +/- 46 pg); type: functional
Mycobacterium leprae [15] = assay: Anti-leprotic activity against Mycobacterium leprae primary cultures at 4 weeks assessed as [3H]thymidine uptake per 5 times 10^7 cells at 15.0 mg/L (reference value: 0.95 +/- 0.01 pmol); type: functional
Mycobacterium leprae [16] = assay: Antimicrobial activity against Mycobacterium leprae; type: functional
Mycobacterium leprae [17] = assay: Anti-leprotic activity against Mycobacterium leprae subcultures at 4 weeks assessed as [3H]thymidine uptake per 5 times 10^7 cells at 15.0 mg/L (reference value: 1.28 +/- 0.14 pmol); type: functional
[18] = Cytotoxicity against LPS-induced human monocytes assessed as cell viability at 5 uM by tryphan blue staining based assay relative to control; parameters: species or system Monocyte; details: read-out: Activity
[19] = Cytotoxicity against LPS-induced human monocytes assessed as cell viability at 50 uM by tryphan blue staining based assay relative to control; parameters: species or system Monocyte; details: read-out: Activity
Monocyte [20] = assay: Antiinflammatory activity in human monocytes assessed as inhibition of LPS-induced TNFaplha production at 5 uM preincubated for 15 mins followed by LPS addition and measured after 4 hrs by ELISA relative to control; type: functional
[21] = Cytotoxicity against LPS-induced human monocytes assessed as cell viability at 0.5 uM by tryphan blue staining based assay relative to control; parameters: species or system Monocyte; details: read-out: Activity
[22] = Cytotoxicity against LPS-induced human monocytes assessed as cell viability at 25 uM by tryphan blue staining based assay relative to control; parameters: species or system Monocyte; details: read-out: Activity
Monocyte [23] = assay: Antiinflammatory activity in human monocytes assessed as inhibition of LPS-induced TNFaplha production at 25 uM preincubated for 15 mins followed by LPS addition and measured after 4 hrs by ELISA relative to control; type: functional
Monocyte [24] = assay: Antiinflammatory activity in human monocytes assessed as inhibition of LPS-induced TNFaplha production at 50 uM preincubated for 15 mins followed by LPS addition and measured after 4 hrs by ELISA relative to control; type: functional
Monocyte [25] = assay: Antiinflammatory activity in human monocytes assessed as inhibition of LPS-induced TNFaplha production at 0.5 uM preincubated for 15 mins followed by LPS addition and measured after 4 hrs by ELISA relative to control; type: functional

Compound: GENTAMICIN
- Activity (Mycobacterium leprae [1]): 60%
- Activity (Mycobacterium leprae [2]): 58.5%

Compound: NCC[C@H](O)C(=O)N[C@@H]1C[C@H](N)[C@@H](O[C@H]2O[C@H](CN)[C@@H](O)[C@H](O)[C@H]2O)[C@H](O)[C@H]1O[C@H]1O[C@H](CO)[C@@H](O)[C@H](N)[C@H]1O [AMIKACIN]
- Activity (Mycobacterium leprae [3]): 96%
- Activity (Mycobacterium leprae [4]): 97.3%

Compound: COc1cc(Cc2cnc(N)nc2N)cc(OC)c1Br [BRODIMOPRIM]
- Activity (Mycobacterium leprae [5]): 109 pg
- Activity (Mycobacterium leprae [6]): 346 pg
- Activity (Mycobacterium leprae [7]): 0 pg
- Activity (Mycobacterium leprae [8]): 0.88 pmol
- Activity (Mycobacterium leprae [9]): 108 pg
- Activity (Mycobacterium leprae [10]): 0.27 pmol
- Activity (Mycobacterium leprae [11]): 0.24 pmol
- Activity (Mycobacterium leprae [12]): 0 pg
- Activity (Mycobacterium leprae [13]): 1.1 pmol
- Activity (Mycobacterium leprae [14]): 296 pg
- Activity (Mycobacterium leprae [15]): 0 pmol
- MIC (Mycobacterium leprae [16]): 0.025 mg/L (≈ 0.0737 µM)
- Activity (Mycobacterium leprae [17]): 0 pmol

Compound: NC[C@H]1O[C@H](O[C@H]2[C@H](O)[C@@H](O[C@H]3O[C@H](CO)[C@@H](O)[C@H](N)[C@H]3O)[C@H](N)C[C@@H]2N)[C@H](O)[C@@H](O)[C@@H]1O [KANAMYCIN]
- Activity (Mycobacterium leprae [3]): 99.7%
- Activity (Mycobacterium leprae [4]): 99.8%

Compound: NC[C@H]1O[C@H](O[C@H]2[C@H](O)[C@@H](O[C@H]3O[C@H](CO)[C@@H](O)[C@H](N)[C@H]3O)[C@H](N)C[C@@H]2N)[C@H](N)C[C@@H]1O [TOBRAMYCIN]
- Activity (Mycobacterium leprae [1]): 37%
- Activity (Mycobacterium leprae [2]): 28.7%

Compound: CCC1(N2C(=O)c3ccccc3C2=O)C(=O)NC(=O)N(c2ccccc2)C1=O (centres undefined)
- viability at 5 µM [18]: 80%
- viability at 50 µM [19]: 68%
- inhibition at 5 µM (Monocyte [20]): 88%
- viability at 0.5 µM [21]: 87%
- viability at 25 µM [22]: 73%
- inhibition at 25 µM (Monocyte [23]): 100%
- inhibition at 50 µM (Monocyte [24]): 100%
- inhibition at 0.5 µM (Monocyte [25]): 12%
